Data as given in publication PMC12691742, “Anti-Cancer Outcome of Glucocorticoid Receptor Transrepression by Synephrine Derivatives in Hematological Malignancies” (International Journal of Molecular Sciences, 2025).
Entries after “also recorded” stand apart in the source; their conditions may differ.

Tests used:
[1] = test system: P388 murine lymphoma; experiment: Transplantable P388 murine lymphoma model; format: in vivo, mice; settings: P388 model; Dex 1 mg/kg, 10S-E2 10 mg/kg i.p. 3 times per week
Description: (§1) Figure 5 Pro-apoptotic and anti-cancer effects of synephrine derivatives in vitro and in vivo. (A) Effect of 4S-C2, 8S-E3, 10S-E2, and 13S-G2 on cell cycle progression in K562 and Granta cells after 24 h of incubation. The cells were fixed with ethanol, stained with propidium iodide, and analyzed using flow cytometry. Statistically significant difference compared to control: *—p < 0.05, **—p < 0.01 (n = 3). (B) In vivo anti-cancer activity was evaluated using the transplantable P388 murine lymphoma model. […] Tumor nodule size was measured twice a week using digital calipers. Statistically significant differences compared to the control: * p < 0.05, ** p < 0.01.
The protocol for the experiment was approved by the local N.N. Blokhin National Medical Research Center Ethics Committee and corresponded to the guidelines for the welfare and use of animals in cancer research adopted by The United Kingdom Coordinating Committee on Cancer Prevention Research. P388 cells were injected i.p. into 5-week-old female DBA/2 mice (“Stolbovaya Farm”, Stolbovaya, Russia). After 15 days, the cells were collected from the peritoneum, washed, and resuspended in PBS. For the experiments, 0.1 mL containing 2 million cells obtained from the ascites was inoculated s.c. in 5-week-old female BDF1 mice (“Stolbovaya Farm”, Stolbovaya, Russia). […] Body weight was recorded twice a week for toxicity determination. Tumor size was measured three times per week using digital calipers.

[2] = test system: leukemia and lymphoma cells (Granta, K562); design: method as in PMID 39858397; settings: cited from earlier work
[3] = test system: BALB/c female mice; experiment: Glucocorticoid-induced osteoporosis model: bone and skin morphometry, body weight; format: in vivo; settings: Dex 20 mg/kg
Text: (A) H&E bone staining and quantification of cortical bone thickness. (B) Q-PCR analysis of Rankl, Mmp9, Tsc2, Trap, and Bglap mRNA expression in bone tissue. […] (C) H&E skin staining and quantification of dermal adipose thickness (50 images per treatment group of 10 animals). Statistically significant differences compared to the control: * p < 0.05, ** p < 0.01.
The protocol for the experiment was approved by the local N.N. Blokhin National Medical Research Center Ethics Committee and corresponded to the guidelines for the welfare and use of animals in cancer research adopted by The United Kingdom Coordinating Committee on Cancer Prevention Research. […] Body weight was recorded twice a week for toxicity control.
Bone and skin samples from the GIOP experiment were fixed in formaldehyde and embedded in paraffin, and sections were stained with hematoxylin and eosin. After formaldehyde fixation, the bone samples were decalcified in decalcification buffer (0.5 M EDTA, 0.7 mM NaOH, pH7.0) for 14 days, washed twice with PBS, and further processed according to the standard histology protocol. The dermal adipose and bone thickness were quantified in sections stained with hematoxylin and eosin. At least five individual fields per slide of each sample/treatment (at least 50 images/treatment group) were analyzed using Axioplan2 microscope software (“Carl Zeiss”, Jena, Germany). The dermal adipose or bone thickness in treated animals is presented as a percentage of the control animals.

[4] = test system: NF-kB activity in K562 cells; experiment: NF-kB.Luc reporter assay in K562 cells; format: cell-based; settings: 5 h, 10S-E2 1 µM
Description: We analyzed GR TR function using an NF-kB.Luc reporter assay with the irritating inflammatory agent phorbol 13-acetate 12-myristate (TPA) as an inducer of NF-kB signaling and positive control.
Figure 4 Effects of synephrine derivatives on GR transrepression in Granta lymphoma and K562 leukemia cells. (A) K562 and Granta cells stably infected with the lentiviruses bearing the NF-kB luciferase reporter. Cells were incubated for 5 h with the solvent (control), TPA (5 ng/mL), 4S-C2 (10 µM), 8S-E3 (10 µM), 10S-E2 (1 µM), or 13S-G2 (1 µM). Luciferase activity was determined as described in the Materials and Methods section. (B) IL1-α and IL6 mRNA expression in K562 and Granta cells. […] The mean ± SD was calculated for three individual samples/condition (n = 3). […]
Lentiviral stocks were generated using the lentiviral expression vector NF-kB. […] The infection efficiency exceeded 90% (tracked by GFP fluorescence).
Cells (10^4 cells/well in a 24-well plate), stably expressing Firefly Luciferase under the NF-kB promoter, were treated for 5 h with TPA (12-O-tetradecanoylphorbol-13-acetate, Boston, MA, USA, 10 ng/mL), 4S-C2 (10 µM), 8S-E3 (10 µM), 10S-E2 (1 µM), 13S-G2 (1 µM), or the vehicle. Luciferase activity was measured as described using a commercial Luciferase Assay (“Promega”, Madison, WI, USA) and Luminometer TD 20/20 (“Turner Design Instruments”, San Jose, CA, USA). […]

[5] = test system: Granta cells; experiment: Cell cycle analysis by PI flow cytometry in Granta cells; format: cell-based; settings: 24 h, 10S-E2 6.25 µM
Description: as §1
The distribution of cells by cell cycle phases was evaluated using propidium iodide (PI) staining, as described in [19]. […] After incubation, the cells were resuspended in 70% ethanol and fixed for 2h at 4 °C. Cells were then washed twice with cold PBS, pH 7.4, and stained with 500 µL of cold propidium iodide (PI) solution (50 µg/mL PI, 1% Triton X-100, and 100 µg/mL RNase A in PBS). The cell cycle distribution of cells in samples was analyzed using an FACSCalibur Flow Cytometer (“BD Biosciences”, San Jose, CA, USA). The experiments were performed in triplicate.

[6] = i.p. every 24 h for 5 weeks, 10S-E2 10 mg/kg

CCCCCCNCC(O)c1ccc(OCc2ccccc2)cc1 (stereo not drawn) [10S-E2, 1-[4-(benzyloxy)phenyl]-2-(hexylamino)ethanol]
animal body weight change vs control [1]: no statisticall y si gnificant differences | IC50 ([2]; leukemia and lymphoma cells, read-out: cell viability IC50): 13 to 26 µM | concentrations of cytotoxic effects ([2]; mantle cell lymphoma Granta and chronic myeloleukemia K562 cells): 10 to 20 µM | animal body weight vs control ([3]; GIOP study, 10S-E2 10 mg/kg i.p. every 24 h for 5 weeks): no statisticall y si gnificant differences; also recorded: similar | loss of cortical bone thickness [3, 6]: did not cause any loss | reduction of dermal adipose tissue / skin atrophy [3, 6]: preserved the skin architecture | inhibition of luciferase activity (NF-kB) [4]: 60% | number of cells in the G1 phase [5]: decrease in the number of cells in the G1 phase
